# Data: patent US9464326B2, “Total and phosphorylated IL-1 receptor-associated kinase-1 and IL-1 receptor-associated kinase-4 as a biomarker for cancer progression and chemotherapy resistance” (University of Maryland, Baltimore, priority 2012, dated 2016)
# Key:
# CCRF-CEM cells [1] = assay: Cellular senescence assay (SA-β-gal); format: cell-based, human; conditions: 5 μM, within 48 hours, maintained to 96 hour, FIG. 15A
# Experimental: Analysis of senescence-associated β-galactosidase (SA-β-gal) activity was performed using the 96-Well Cellular Senescence Assay Kit (Cell Biolabs, San Diego, Calif.) as per the manufacturer's protocol. In brief, cells were washed with PBS, lysed with cell lysis buffer, and incubated at 37° C. with SA-β-gal substrate for 1 hour. A quantitative Cellular Senescence Assay Kit (SA-β-gal, Fluorometric) (Cell Biolabs, San Diego, Calif.) was used for more quantitative measurement of SA-β-gal activity by flow cytometry. Briefly, control and treated CCRF-CEM cells were incubated with 1× cell pretreatment solution in culture medium for 2 hrs, and the fluorogenic substrate was then directly added into the culture. After 4 hrs, the cells were washed and analyzed by flow cytometry.
# CCRF-CEM cells [2] = assay: Senescence gene qPCR array / RT-PCR; format: cell-based, human; conditions: array of 84 senescence genes, COL1A1 not validated by RT-PCR
# From the text: To further study the role of IRAK-1,-4 signaling in cellular senescence, we compared the expression of 84 key genes involved in the initiation and progression of senescence. […] Expression levels of CDKN1C, EGR1 and ID1 were also altered in all four T-ALL patient samples collected from IRAK-1,-4 inhibitor-treated NSG mice (FIG. 15E).
# A375 melanoma cells = assay: Apoptosis by annexin-V/PI flow cytometry in A375; format: cell-based, human
# Experimental: FIG. 8. IRAK-1,-4 inhibition sensitized melanoma cells to vinblastine-mediated cytotoxicity. (A) A375 and Malme-3M melanoma cells were cultured with or without 2.5 μM of IRAK-1,-4 and in the presence varying concentrations of vinblastine, cisplatin or 5′ Fluorouracil. Forty-eight hours later apoptosis was evaluated by staining cells with annexin-V and propidium iodide and analyzed by flow cytometry. (B) A375 cells were transfected via electroporation with siRNA-IRAK-1,-4. IRAK-1 protein levels were examined by Western blotting. […], A375-psiRNA-hIRAK-1, A375-psiRNA-hIRAK-4, or cells expressing both psiRNA-hIRAK-1 and -4 were cultured in the presence of vinblastine (100 nmol/L) for 48 hours and apoptosis was examined by flow cytometry. (C) A375 melanoma cells were cultured in the presence of vehicle alone (DMSO) or various concentrations of IRAK-1,-4. Forty-eight hours later cell lysates were used to analyze the expression of levels of cleaved PARP or caspase-3 by Western blots. (D) A375 melanoma cells were cultured with or without 2.5 μM of IRAK.-1,-4 and in the presence or absence of vinblastine for 48 hrs. PARP and caspase-3 levels were determined by Western blot.
# FIG. 20. Role of TLR-induced cytokines and NF-kB on cell survival. […] The percentage of apoptotic cells was measured by staining cells with Annexin and PI 48 hours later and analyzed by flow cytometry. […] After 48 hours, apoptosis was measured by flow cytometry. […] Apoptosis was measured 48 hours later by flow cytometry.
# The TLR1-TLR2 ligand tripalmitoyl-S-(bis(palmitoyloxy)propyl)-Cys-Ser-(Lys)3-Lys (Pam3Cys) was purchased from Invivogen (San Diego, Calif., USA). […] In some experiments cells were treated with the indicated concentrations of IRAK.-1,-4 inhibitor and vinblastine, cisplatin, and 5-fluorouracil (Sigma-Aldrich, St. Louis, Mo.), and apoptosis was quantitated by flow cytometry after staining cells with FITC-labeled annexin-V (BD Pharmingen, San Jose, Calif.) and propidium iodide (PI; Sigma-Aldrich).
# IRAK-1 = IRAK-1 (Homo sapiens, UniProt P51617); conditions: supplier (EMD Millipore) description; cited from earlier work
# IRAK-4 = IRAK-4 (Homo sapiens, UniProt Q9NWZ3); conditions: supplier (EMD Millipore) description; cited from earlier work
# IRAK-4, sequence (Q9NWZ3 whole entry): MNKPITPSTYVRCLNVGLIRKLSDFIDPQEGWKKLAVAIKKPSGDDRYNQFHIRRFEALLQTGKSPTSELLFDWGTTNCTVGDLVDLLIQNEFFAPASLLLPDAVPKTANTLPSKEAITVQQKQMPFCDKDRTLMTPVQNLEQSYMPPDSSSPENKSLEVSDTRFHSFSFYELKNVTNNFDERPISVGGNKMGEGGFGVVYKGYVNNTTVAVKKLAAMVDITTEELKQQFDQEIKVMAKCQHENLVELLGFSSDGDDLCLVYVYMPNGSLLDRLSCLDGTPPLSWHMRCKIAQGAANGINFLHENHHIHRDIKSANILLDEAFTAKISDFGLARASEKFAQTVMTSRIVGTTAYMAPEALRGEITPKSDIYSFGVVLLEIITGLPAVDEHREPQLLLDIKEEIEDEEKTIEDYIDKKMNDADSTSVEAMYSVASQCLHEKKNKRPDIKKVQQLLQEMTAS
# IRAK-1, sequence (P51617 whole entry): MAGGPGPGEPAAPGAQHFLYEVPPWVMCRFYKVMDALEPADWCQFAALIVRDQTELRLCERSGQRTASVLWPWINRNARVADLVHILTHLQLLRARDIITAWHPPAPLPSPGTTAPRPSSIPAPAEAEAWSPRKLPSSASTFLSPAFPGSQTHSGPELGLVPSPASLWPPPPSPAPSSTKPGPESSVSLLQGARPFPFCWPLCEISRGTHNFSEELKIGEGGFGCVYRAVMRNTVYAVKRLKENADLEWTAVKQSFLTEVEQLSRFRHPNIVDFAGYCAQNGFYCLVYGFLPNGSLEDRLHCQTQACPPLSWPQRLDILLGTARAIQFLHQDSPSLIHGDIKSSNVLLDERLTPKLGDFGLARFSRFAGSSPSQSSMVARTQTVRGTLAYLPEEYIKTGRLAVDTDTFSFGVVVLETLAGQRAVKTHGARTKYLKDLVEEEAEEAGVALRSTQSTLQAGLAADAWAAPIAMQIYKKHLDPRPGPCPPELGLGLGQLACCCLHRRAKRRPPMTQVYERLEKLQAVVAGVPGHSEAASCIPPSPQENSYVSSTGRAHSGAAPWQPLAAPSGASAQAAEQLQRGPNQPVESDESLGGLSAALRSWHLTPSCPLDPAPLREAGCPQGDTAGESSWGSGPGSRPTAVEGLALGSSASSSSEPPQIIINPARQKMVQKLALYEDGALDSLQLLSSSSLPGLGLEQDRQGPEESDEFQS
smiles,measurement,setting,value
"O=C(Nc1nc2ccccc2n1CCN1CCOCC1)c1cccc([N+](=O)[O-])c1 [IRAK-1,-4 inhibitor]",increase of SA-β-gal activity,CCRF-CEM cells [1],three-fold
same,"expression of CDKN1C, COL1A1, EGR1, ID1, PLAU and SERPINES",CCRF-CEM cells [2],significantly up- or down-regulated
same,sensitivity to vinblastine (apoptosis),"A375 melanoma cells; 2.5 μmol/L IRAK-1,-4 inhibitor with 0-200 nmol/L vinblastine, 48 h",increased sensitivity
same,cisplatin's cytotoxicity,"A375 melanoma cells; IRAK-1,-4 inhibitor with 0-50 nmol/L cisplatin",did not increase
same,melanoma apoptosis,"A375 melanoma cells; inhibitor alone, absence of vinblastine",moderately increased
same,inhibition of IRAK-1,IRAK-1,selectively inhibits
same,inhibition of IRAK-4,IRAK-4,selectively inhibits
